Measurements: patent publication US9840515B2, “Protein kinase D inhibitors” (University of Pittsburgh—Of the Commonwealth System of …, priority 2010, dated 2017)
Where a name gives a salt, the structure may show the parent alone.

Key:
[1] = target: T1, purified recombinant human PKD1 (Homo sapiens, UniProt Q15139); test: radiometric PKD kinase activity assay; assay type: biochemical; conditions: for IC50: read-out: IC50 radiometric PKD1
T1 sequence (Q15139 1-912): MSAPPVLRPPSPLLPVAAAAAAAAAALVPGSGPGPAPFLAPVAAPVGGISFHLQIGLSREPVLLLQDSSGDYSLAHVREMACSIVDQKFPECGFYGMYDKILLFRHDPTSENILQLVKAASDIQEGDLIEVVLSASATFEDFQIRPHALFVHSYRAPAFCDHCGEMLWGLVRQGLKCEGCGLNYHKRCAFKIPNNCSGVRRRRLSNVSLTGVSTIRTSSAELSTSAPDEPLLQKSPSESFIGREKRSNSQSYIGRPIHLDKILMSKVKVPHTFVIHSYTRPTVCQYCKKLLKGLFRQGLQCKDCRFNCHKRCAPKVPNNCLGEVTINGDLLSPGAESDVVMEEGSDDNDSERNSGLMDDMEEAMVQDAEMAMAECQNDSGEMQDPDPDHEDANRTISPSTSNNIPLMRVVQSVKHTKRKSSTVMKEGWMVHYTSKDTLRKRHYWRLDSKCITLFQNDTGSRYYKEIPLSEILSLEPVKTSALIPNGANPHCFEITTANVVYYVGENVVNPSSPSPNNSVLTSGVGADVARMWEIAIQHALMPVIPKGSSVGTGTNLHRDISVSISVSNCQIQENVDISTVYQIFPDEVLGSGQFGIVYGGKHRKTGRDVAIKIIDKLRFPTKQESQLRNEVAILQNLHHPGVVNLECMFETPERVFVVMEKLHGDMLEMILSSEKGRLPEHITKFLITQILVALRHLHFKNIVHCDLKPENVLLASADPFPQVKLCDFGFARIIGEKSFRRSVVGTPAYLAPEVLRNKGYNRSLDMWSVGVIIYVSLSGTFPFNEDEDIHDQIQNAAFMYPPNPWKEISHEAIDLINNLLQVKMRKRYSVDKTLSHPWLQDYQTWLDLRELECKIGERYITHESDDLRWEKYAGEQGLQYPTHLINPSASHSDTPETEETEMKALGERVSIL
Method: The radiometric PKD kinase assay was carried out by co-incubating 0.5 μCi γ-32P-ATP (PerkinElmer, Boston, Mass.), 20 μM ATP, 50 ng purified recombinant human PKD (PKD1, PKD2, PKD3) proteins, and 2.5 μg Syntide-2 (Sigma) in 50 μl kinase buffer that contains 50 mM Tris-HCl, pH 7.5, 4 mM MgCl2, 10 mM β-mercaptoethanol. The reaction was carried out under sub-saturation conditions, such that the initial rate was within linear kinetic range. The reaction mixture was incubated at 30° C. for 10 min, followed by spotting 25 μl of the mix onto a Whatman P81 filter paper (Whatman Inc, Clifton, N.J.). The filter papers were then washed three times in 0.5% phosphoric acid, air-dried, and counted using a Beckman LS6500 multi-purpose scintillation counter (Beckman, Fullerton, Calif.).

melting point | Compound | other results
117 to 119 °C | CC(C)(C)[Si](C)(C)Oc1ccc2oc(=O)c3c(c2c1)CCCN3 | 
215 to 217 °C | COc1ccc2sc3c(c2c1)[S+]([O-])CCNC3=O (centres unmarked) [kb-NB184-45, 3,4-Dihydro-9-methoxy-1-oxide-[1]benzothieno[2,3-f]-1,4-thiazepin-5(2H)-one] | 
295 °C (dec.) | COc1nc(O)c2sc3c(c2n1)SCCNC3=O [kmg-NB5-15A, 4-Hydroxy-2-methoxy-7H,8H,9H-1,4-thiazepino[7′,6′-5,4]thiopheno[3,2-d]pyrimidin-6-one] | IC50 [1]: > 30 µM
209 to 212 °C | CC(C)(C)[Si](C)(C)Oc1ccc2oc3c(c2c1)CCCNC3=O | 
144 to 145 °C | c1ccc(COc2ccc3sc4c(c3c2)SCCNC4)cc1 [kb-NB165-81, 2,3,4,5-Tetrahydro-9-benzyloxy-[1]benzothieno[2,3-f]-1,4-thiazepine] | IC50 [1]: 39.6 µM
220 to 224 °C | COc1cccc2c3c(sc12)C(=O)NCCS3 [kb-NB184-44, 3,4-Dihydro-7-methoxy-[1]benzothieno[2,3-f]-1,4-thiazepin-5(2H)-one] | 
284 to 287 °C | COc1ccc2c(c1)c1c([s+]2[O-])C(=O)NCCS1 (centres unmarked) [kb-NB184-25, 3,4-Dihydro-9-methoxy-6-oxide-[1]benzothieno[2,3-f]-1,4-thiazepin-5(2H)-one] | IC50 [1]: 1.08 µM
90 to 91 °C | C=CCOc1ccc2oc(=O)c3c(c2c1)CCCN3 [kb-NB77-83, 9-Allyloxy-1,2,3,4-tetrahydrochromeno[3,4-b]pyridin-5-one] | 
235 to 238 °C (dec.) | O=C1NCCSc2c1sc1ccc(O)c(Br)c21 [kb-NB184-52, 3,4-Dihydro-9-hydroxy-10-bromo-[1]benzothieno[2,3-f]-1,4-thiazepin-5(2H)-one] | IC50 [1]: 0.048 µM
195 to 200 °C | O=C1NCCCOc2c1sc1ccc(OCc3ccccc3)cc21 [kb-NB184-36, 2,3,4,5-Tetrahydro-10-benzyloxybenzo[b]thieno[2,3-f]-1,5-oxazocin-6-one] | 
235 to 237 °C | O=C(OCc1ccccc1)N1CCCc2c1c(=O)oc1ccc(O)cc21 [kb-NB77-91, Phenylmethyl 9-hydroxy-5-oxo-1,2,3,4-tetrahydrochromeno[3,4-b]pyridine-4-carboxylate] | 
155 to 157 °C | CC(=O)Oc1ccc2oc3c(c2c1)CCCN(C(C)=O)C3=O [kb-NB123-45-1, 2-Acetyl-1-oxo-3H,4H,5H-azepino[5,6-d]benzo[b]furan-7-yl acetate] | 
182 to 184 °C (dec.) | Oc1ccc2sc3c(c2c1)SCCNC3 [kb-NB165-83, 2,3,4,5-Tetrahydro-9-hydroxy-[1]benzothieno[2,3-f]-1,4-thiazepine] | IC50 [1]: 16.4 µM
160 to 163 °C (dec.) | O=C1NCCSc2c1[s+]([O-])c1ccc(O)cc21 (centres unmarked) [kb-NB184-22, 3,4-Dihydro-9-hydroxy-6-oxide-[1]benzothieno[2,3-f]-1,4-thiazepin-5(2H)-one] | 
198 to 199 °C | O=C1NCCCSc2c1sc1ccc(OCc3ccccc3)cc21 [kb-NB165-89, 2,3,4,5-Tetrahydro-10-benzyloxybenzo[b]thieno[2,3-f]-1,5-thiazocin-6-one] | IC50 [1]: 21.7 µM
229 to 230 °C (dec.) | O=C(CCl)Nc1ccc2sc3c(c2c1)SCCNC3=O [mcf292-09, 3,4-Dihydro-9-(2-chloroacetamido)-[1]benzothieno[2,3-f]-1,4-thiazepin-5(2H)-one] | IC50 [1]: 1.5 µM

melting point | Compound | other results
198.6 to 199 °C | Nc1ccc2sc3c(c2c1)SCCNC3=O [mcf292-03, 3,4-Dihydro-9-amino-[1]benzothieno[2,3-f]-1,4-thiazepin-5(2H)-one] | IC50 [1]: 3.17 µM
265 to 268 °C | O=C1NCCc2c1oc1ccc(O)cc21 [kb-NB123-23A, 6-Hydroxy-2,3,4-trihydrobenzo[b]pyridino[4,3-d]furan-1-one] | 
288 °C (dec.) | COc1nc(OC)c2sc3c(c2n1)SCCNC3=O [kmg-NB5-13C, 2,4-Dimethoxy-7H,8H,9H-1,4-thiazepino[7′,6′-5,4]thiopheno[3,2-d]pyrimidin-6-one] | 
211 to 213 °C | O=c1oc2ccc(O)c(Cl)c2c2c1NCCC2 [kb-NB96-47-1, 10-Chloro-9-hydroxy-1,2,3,4-tetrahydrochromeno[3,4-b]pyridin-5-one] | 
168 to 172 °C | COc1ccc2oc3c(c2c1)CCN(C)C3=O [kb-NB123-37, 6-Methoxy-2-methyl-2,3,4-trihydrobenzo[b]pyridino[4,3-d]furan-1-one] | 
282 to 284 °C | CN1CCCc2c(oc3ccc(O)cc23)C1=O [kb-NB142-25, 7-Hydroxy-2-methyl-3,4,5-trihydro-[1]benzoxolo[2,3-c]azepin-1-one] | 
230 to 232 °C (dec.) | Oc1ccc2oc3c(c2c1)CCCN1CCN=C31 [kb-NB165-15, 5H,6H,7H-Benzo[b]2-imidazolino[1′,2′-7,1]azepino[5,6-d]furan-9-ol] | IC50 PKD1 ([1]; radiometric kinase activity assay, in vitro): No inhibition
160 to 161 °C | COc1ccc2sc3c(c2c1)SCCN(C)C3=O [kb-NB165-16, 2,3-Dihydro-4-Methyl-9-methoxy-[1]benzothieno[2,3-f]-1,4-thiazepin-5(2H)-one] | IC50 [1]: 4.57 ± 0.78 µM
335.9 °C (dec.) | O=C1NCCSc2c1sc1cnc(O)nc21 (as salt: hydrochloride) [kmg-NB4-69A, 2-Hydroxy-7H,8H,9H-1,4-thiazepino[7′,6′-5,4]thiopheno[3,2-d]pyrimidin-6-one] | 
213 to 215 °C | O=C1NCCSc2c1sc1c(OCc3ccccc3)cccc21 [kb-NB184-38, 3,4-Dihydro-7-benzyloxy-[1]benzothieno[2,3-f]-1,4-thiazepin-5(2H)-one] | 
116 to 120 °C | COC(=O)c1sc2ccc(OC)cc2c1NCCCO [kb-NB184-80, Methyl 3-(3-hydroxypropylamino)-5-methoxybenzo[b]thiophene-2-carboxylate] | IC50 radiometric PKD1 [1]: not inhibitory
269 to 272 °C (dec.) | O=C1NCCSc2c1sc1c(O)cccc21 [kb-NB184-40, 3,4-Dihydro-7-hydroxy-[1]benzothieno[2,3-f]-1,4-thiazepin-5(2H)-one] | 
150 to 151 °C | COc1ccc2oc3c(c2c1)CCCN(C)C3=O [kb-NB96-04, 7-Methoxy-2-methyl-3H,4H,5H-azepino[5,6-d]benzo[b]furan-1-one] | 
261 to 263 °C | COc1ccc2oc3c(c2c1)CCCNC3=O [kb-NB77-56, 7-Methoxy-2,3,4,5-tetrahydro-[1]benzoxolo[2,3-c]azepin-1-one] | 
247 to 249 °C | O=C1NCCSc2c1sc1ccc(OCc3ccccc3)cc21 [kb-NB123-66, 3,4-Dihydro-9-benzyloxy-[1]benzothieno[2,3-f]-1,4-thiazepin-5(2H)-one] | 
233 to 237 °C | COc1ccc2sc3c(c2c1)OCCCNC3=O [kb-NB184-57, 2,3,4,5-Tetrahydro-10-methoxybenzo[b]thieno[2,3-f]-1,5-oxazocin-6-one] | 

Compound | melting point | other results
CC(=O)Oc1ccc2oc3c(c2c1)CCCNC3=O [kb-NB123-36, 7-Acetoxy-2,3,4,5-tetrahydro-[1]benzoxolo[2,3-c]azepin-1-one] | 196 to 197 °C | 
